Tests used:
[1] = test system: hPF4/FcγRIIA double transgenic mice given KKO; test: Therapeutic intervention in the murine HIT model (platelet counts after KKO); format: in vivo, mouse
Experimental: Transgenic mice expressing different amounts of hPF4 mRNA per platelet have been described previously (26). Three lines bearing 1, 6 and 22 copy numbers of the human PF4 gene/haplotype were used. […] Transgenic mice expressing FcγRIIA were generously provided by Steven McKenzie, Thomas Jefferson University (30) and crossbred with these hPF4 mice. All murine lines were backcrossed onto the C57BL/6J background>8 times. Genomic makeup of mice was determined by PCR analysis using oligonucleotide primers described previously (26,30). Controls included littermates transgenic for hPF4 or FcγRIIA only. Mice were 6-10 weeks of age at the time of study. Total platelet hPF4 levels in the various transgenic hPF4 lines were determined using an Asserachrom PF4 kit (Diagnostica Stago) as per the manufacturer using recombinant hPF4 as the standard. Mouse blood was obtained by retroorbital puncture. The plate was read at 450 nm in a THERMOmax microplate reader (Molecular Devices). Measurements of surface KKO binding in vivo in WT and the hPF4 transgenic mice were determined after IV injection of 20 μg of FITC-labeled KKO in 200 μL of sterile PBS via the tail vein followed by withdrawal of 50 μL of blood from the retroorbital plexus 10 min later. The blood was coimmunostained for CD41, and KKO binding to CD41-positive cells was estimated by flow cytometry. In other studies, KKO was injected intraperitoneally (IP) in a final volume of 200 μL diluted with sterile PBS. Porcine heparin (200 μL of 100 U/mL stock; Abbott Laboratories) was injected subcutaneously (SQ) in a subgroup of studied animals beginning at 24 hrs for 4 consecutive days. Complete blood counts were measured in 50 μl of whole blood obtained by retroorbital puncture into Safe-T-Fill® minicapillary blood collection tubes (Kabe Labortechnik). Platelets were enumerated using an automatic cell counter (HEMAVET, Drew Scientific). In the therapeutic intervention studies, either porcine heparin (100 U/kg) or protamine sulfate (2 mg/kg) were injected IV over 2 mins. KKO (200 μg) was given IP 1 hr later (zero time point). Injection of heparin or protamine was repeated 21 and 45 hr later. Blood counts were determined as above.
Platelet counts between groups were compared using the Student's t-test. Statistical analyses were performed using Graph Pad Prism (Graphpad Software). Differences were considered significant at a p value of <0.05.

[2] = biological target: T1, hPF4 bound to surface GAGs of murine platelets (Homo sapiens, UniProt P02776); test: KKO binding to murine platelets in the presence of hPF4 (flow cytometry); set-up: species or system mouse; conditions: mPF4 null platelets, enzyme 0-5 U/ml, 37° C., 30 min
T1 construct: made in house; host or cells: E. coli BL21DE30 pLysS, pT7-7 plasmid
T1 sequence (P02776 32-101): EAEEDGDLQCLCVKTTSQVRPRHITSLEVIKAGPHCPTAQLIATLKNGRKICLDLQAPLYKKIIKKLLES
Experimental: Studies were performed using human platelets or platelets from WT and transgenic mice (see below for the description of the mice). Human blood was collected after informed consent from healthy, aspirin-free volunteers in acid citrate dextrose (ACD, pH 4.5, 10:1, vol/vol) under a protocol approved by the Institutional Review Board for Studies involving Human Subjects of the Children's Hospital of Philadelphia. All studies involving mice were approved by the same Institution's Institute Animal Care and Use Committee. Blood was centrifuged at 200 g for 15 min at room temperature (RT) to generate platelet-rich plasma (PRP). PGE1 (final concentration 1 μg/mL, Sigma) was added to the PRP to prevent spontaneous platelet activation. […] Total immunodetectable platelet hPF4 was determined using murine platelets completely deficient in murine PF4 (mPF4 null (29)). […] Autoradiograpic bands over the linear range of exposure were analyzed on a UMAX Vista-58 scanner, and the data analyzed by developing a histogram of the calculated density using the NIH program ImageJ (rsb.info.nih.gov). Total surface PF4 binding was also detected using mPF4 null platelets after paraformaldehyde crosslinking, as above. […] FITC-labeled KKO (50 μg/mL) was added for 15 min, the sample was diluted 1/10 with Tyrode's buffer and antibody binding was measured by flow cytometry as above. […]

[3] = hPF4Mid/FcγRIIA+ mice, heparin 100 U/kg or protamine sulfate 2 mg/kg IV 1 hr before 200 μg KKO IP

## protamine sulfate
[1]; hPF4High/FcγRIIA+ mice, heparin 100 U/kg or protamine sulfate 2 mg/kg IV
  Effect on KKO-induced thrombocytopenia: retained its efficacy
[1]; hPF4High/FcγRIIA+ mice, protamine sulfate 2 mg/kg IV
  Platelet counts versus mice receiving antibody alone at 24 and 48 hr: significantly higher
[1]; [3]
  Effect on KKO-induced thrombocytopenia at 3 hr: prevented thrombocytopenia
  Effect on KKO-induced thrombocytopenia at 24 hr: decreased the severity of thrombocytopenia
[1]; hPF4Mid/FcγRIIA+ mice, repeat at 21 and 45 hr
  Platelet counts after repeat doses on the second and third days: maintained platelet counts above the level in mice that had received KKO alone

B1: heparinase 1: heparinase I (Sigma), enzyme used to pretreat platelets (protein, UniProt Q05819 22-384, looked up)
Heparin lyase I: QQKKSGNIPYRVNVQADSAKQKAIIDNKWVAVGINKPYALQYDDKLRFNGKPSYRFELKAEDNSLEGYAAGETKGRTELSYSYATTNDFKKFPPSVYQNAQKLKTVYHYGKGICEQGSSRSYTFSVYIPSSFPDNATTIFAQWHGAPSRTLVATPEGEIKTLSIEEFLALYDRMIFKKNIAHDKVEKKDKDGKITYVAGKPNGWKVEQGGYPTLAFGFSKGYFYIKANSDRQWLTDKADRNNANPENSEVMKPYSSEYKTSTIAYKMPFAQFPKDCWITFDVAIDWTKYGKEANTILKPGKLDVMMTYTKNKKPQKAHIVNQQEILIGRNDDDGYYFKFGIYRVGNSTVPVTYNLSGYSETAR
[2]
  Effect of pretreating platelets on KKO binding: not heparinase 1 alone (data not shown), decreased KKO binding

Reference: patent publication US20070190582A1, “Platelet surface PF4 antigenic complexes as a diagnostic indicator in heparin-induced thrombocytopenia” (priority 2005, published 2007)
